One assay relates to tele-methylhistamine. Description: Effects on brain tele-methylhistamine levels. The format is in vivo, rat. The following applies: male Sprague-Dawley rats, oral, frontal cortex. How it is done:
Compounds of the invention were dissolved in 20% 2-hydroxyl-beta-cyclodextran (HBC) and then sonicated briefly until there is little or no suspension in the solution. Animals (male Sprague-Dawley rats at the age of 8 weeks) were orally dosed with test compounds I hour or other longer time points before they were sacrificed using CO2.
A cardiac puncture was performed to collect blood sample from the cardiac cavity. The collected blood was immediately mixed with EDTA-K2 20 μl/ml to avoid blood clotting. The blood samples in tubes were then centrifuged (15 mim, 6000 rpm) and the plasma transferred to new tubes and then temporarily kept in dry ice until they were stored in a −70° C. freezer.
CSF collection: CSF samples were taken from the foramen magnum of the animal (using a #0.5 intravenous needle), and the CSF sample were kept in dry ice.
The rat brain were taken out of the skull and rinsed with ice-cold saline first. The frontal cortex was separated from the rest of the brain on top of a petri dish with ice underneath. The wet weight of the frontal cortex was weighed and recorded immediately. The frontal cortex sample was then kept in dry ice until they are transferred to a −70° C. freezer.
Bioanalytical Methods for Tele-Methyl Histamine and Compounds:
• Instrument: Agilent 6410, triple quadrupole mass spectrometer • Matrix: rat plasma, frontal cortex homogenate and cerebrospinal fluid (CSF) • Analyte: H3 compounds. • Internal standard: Dexamethasone HPLC Conditions Mobile Phase A: H2O—0.1% NH3.H2O: • Mobile phase B: MeOH-0.1% NH3.H2O • Column: Ultimate XB-C18 (2.1×50 mm, 5 μm) • Flow rate: 0.45 mL/min, temperature: 40° C. MS Conditions: • ESI: positive ion • MRM detection • Dexamethasone: [M+H]+m/z 393.3→373.2; CE: 4; Fragmentor: 110 Sample Preparation: Frontal Cortex:
the brain sample was homogenized for 2 min with 3 volumes (v/w) of homogenizing solution (EtOH:PBS=85:15), and then centrifuged at 12,000 rpm for 5 min. […]

The target of a further assay is human H3 receptors (Homo sapiens (Human), UniProt Q9Y5N1). Description: Affinity assessment: displacement of [3H]-N-α-Methylhistamine binding to membranes. The following applies: membranes containing human H3 receptors, radioligand [3H]-N-α-Methylhistamine. How it is done:
The affinity of compounds of the invention to the H3 receptor can be assessed by measuring displacement of binding of the radioligand [3H]-N-α-Methylhistamine (PerkinElmer, #NET1027250UC) to membranes containing human H3 receptors (PerkinElmer, #ES-392-M400UA; GenBank: NM_007232.2; Hill S J et al, International Union of Pharmacology XIII. Classification of histamine receptors, Pharmacol Rev, 49(3), 253-278, 1997).
2. Compound serial dilution: Dilution was performed by BioTek Precision on compound dilution plate. Compound concentrations start at 5 or 10 μM, 10 point dose titrations with 3- or 5-fold serial dilutions.
3. Preparation of 2× membrane solution (25 ml): 1.25 ml human Histamine H3 receptor stock, 23.75 ml assay buffer.
4. Preparation of 2× solution of [3H]-N-α-methylhistamine (25 ml): 4.27 μl [3H]-N-α-methylhistamine stock, 25 ml assay buffer.
5. Assemble binding reaction: (a) transfer 1 μl of compound solution, 1 μl 100% DMSO and 1 μl 1 M (R)(−)-α-Methylhistamine (Sigma, #H128) to the reaction plate at room temperature, (b) transfer 50 μl of 2× protein solution to reaction plate, (c) transfer 49 μl of 2× radioligand solution to reaction plate (Corning® 96 well EIA/RIA plate; Sigma, #CLS3797).
6. Cover the reaction plate with a TopSeal™-A film (Perkin Elmer, #6005185) and incubate at 28° C. for 120 min. Equilibrate Zeba Spin Desalting Plates (Thermo Scientific, #89808) to room temperature for 120 min.
7. Remove the sealing material from the bottom of the filtration plate. Place the plate on a wash plate. Centrifuge at 1000 g for 2 min to remove the storage buffer at room temperature.
8. Transfer 70 μl binding reaction from reaction plate into filtration plates. Place the filtration plates on top of collection plate. Centrifuge the plate assembly at 1000 g for 2 min to collect the protein with bound radioligand. Add 200 μl of Microscint-40 (PerkinElmer, #6013641-1L) to each well of the collection plate. Cover the plates with TopSeal™-A film.
9. Read the plates on Wallac Microbeta Trilux 2450, Instrument settings: counting mode: CPM, counting time: 2 min.
10. Data analysis: GraphPad Prism: log (compound concentration) vs. response; variable slope. The Ki is calculated based on Chang and Prusoff: Ki=IC50/{1+([radioligand]/Kd)}
A general note: Displacement assays read how much labelled ligand stays bound in the presence of the test substance.

Three molecules from patent US9034874B2, “Carbamate/urea derivatives” (NOVARTIS AG, priority 2012, dated 2015) can be followed below.

Each structure is given as a SMILES string.

Sequence of human H3 receptors (Q9Y5N1 whole entry): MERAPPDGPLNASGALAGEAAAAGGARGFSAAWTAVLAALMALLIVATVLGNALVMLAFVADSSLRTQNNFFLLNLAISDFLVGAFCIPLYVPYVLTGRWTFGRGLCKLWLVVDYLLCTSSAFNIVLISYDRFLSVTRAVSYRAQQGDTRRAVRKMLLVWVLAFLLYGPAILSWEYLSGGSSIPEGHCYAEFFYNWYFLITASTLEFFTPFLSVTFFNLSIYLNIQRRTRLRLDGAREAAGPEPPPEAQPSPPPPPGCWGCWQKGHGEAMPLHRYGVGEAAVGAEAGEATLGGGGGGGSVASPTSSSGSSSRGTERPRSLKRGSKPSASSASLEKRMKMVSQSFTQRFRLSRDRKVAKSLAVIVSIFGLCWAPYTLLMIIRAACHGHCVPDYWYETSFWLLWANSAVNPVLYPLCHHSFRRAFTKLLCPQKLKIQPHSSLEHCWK

As for `O=C(OC1CCN(c2ccc(=O)[nH]n2)CC1)N1CCN(C2CCC2)CC1` [Example 1.1, 1-(6-oxo-1,6-dihydropyridazin-3-yl)piperidin-4-yl 4-cyclobutylpiperazine-1-carboxylate], the “% change in tele-methylhistamine brain levels for 10 mg/kg @ 1 h” value (from here on “% change”) in the assay with tele-methylhistamine amounted to 72%. For the same molecule, the affinity at human H3 receptors, expressed as Ki, was 26 nM.

As to `CC(C)N1CCN(C(=O)OC2CCN(c3ccc(=O)n(C)n3)CC2)CC1` [Example 1.2, 1-(1-methyl-6-oxo-1,6-dihydropyridazin-3-yl)piperidin-4-yl 4-isopropylpiperazine-1-carboxylate], the “% change” value in the assay on tele-methylhistamine was 138%. In addition, the Ki – broadly, the equilibrium dissociation constant of an inhibitor or competing ligand from its target – at human H3 receptors was found to be 31 nM.

Consider `CC(C)N1CCN(C(=O)OC2CCN(c3ccc(=O)[nH]n3)CC2)CC1` [Example 1.3, 1-(6-oxo-1,6-dihydropyridazin-3-yl)piperidin-4-yl 4-isopropylpiperazine-1-carboxylate], for which, in the assay on tele-methylhistamine, the “% change” value came out at 115%. At human H3 receptors, this molecule gave a Ki of 10 nM.
